# Biological target: T1, Human complement C1s enzyme (Homo sapiens, UniProt P09871)
# T1 sequence (P09871 438-688 limits assumed): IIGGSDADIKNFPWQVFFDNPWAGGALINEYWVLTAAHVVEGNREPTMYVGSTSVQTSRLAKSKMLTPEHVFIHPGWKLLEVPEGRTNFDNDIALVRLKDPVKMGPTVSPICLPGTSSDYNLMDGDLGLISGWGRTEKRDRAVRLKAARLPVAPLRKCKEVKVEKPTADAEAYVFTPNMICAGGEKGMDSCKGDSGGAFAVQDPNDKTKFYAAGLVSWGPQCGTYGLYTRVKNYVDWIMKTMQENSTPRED
# T1 sequence (P09871 16-437 partner limits assumed): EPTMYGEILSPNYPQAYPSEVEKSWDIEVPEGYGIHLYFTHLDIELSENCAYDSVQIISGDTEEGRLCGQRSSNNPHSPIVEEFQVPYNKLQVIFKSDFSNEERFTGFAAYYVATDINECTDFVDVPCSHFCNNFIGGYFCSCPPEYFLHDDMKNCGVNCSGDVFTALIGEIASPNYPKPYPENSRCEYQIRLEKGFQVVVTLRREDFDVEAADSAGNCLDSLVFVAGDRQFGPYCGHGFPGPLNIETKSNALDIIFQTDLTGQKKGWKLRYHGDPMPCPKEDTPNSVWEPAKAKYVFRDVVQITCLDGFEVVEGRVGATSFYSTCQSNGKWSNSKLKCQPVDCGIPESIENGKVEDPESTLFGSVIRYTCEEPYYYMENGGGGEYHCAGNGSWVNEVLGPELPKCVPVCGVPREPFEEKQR
# Experiment: Human C1s enzyme assay
# Assay type: biochemical
# Conditions: human complement C1s enzyme 1.16 nM, substrate Z-L-Lys-SBzl 100 μM, 5 min preincubation; read-out: IC50 (Stars), C1s Inhibiting Activity
# In short: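 Serum-purified human C1s (1.16 nM final) preincubated 5 min at room temperature with compound in 50 mM Tris, 1 M NaCl, pH 7.5. Z-L-Lys-SBzl and DTNB added at 100 μM each; A405 followed every 30 s for 30 min, and IC50 obtained by nonlinear regression of reaction rates.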
row,IC50 [nM],Compound
1,< 100,"COC[C@@]1(F)C[C@@H](C(=O)N[C@H](C)c2cc3cnccc3[nH]2)N(C(=O)CNC(=O)c2ccc3c(c2)Oc2ccccc2S3)C1 [Compound 173, (2S,4R)-N-((R)-1-(1H-pyrrolo[3,2-c]pyridin-2-yl)ethyl)-4-fluoro-4-(methoxymethyl)-1-((phenoxathiine-3-carbonyl)glycyl)pyrrolidine-2-carboxamide]"
2,< 100,"C[C@@H](NC(=O)[C@@H]1C[C@@H](S(=O)(=O)C2CC2)CN1C(=O)CNC(=O)c1ccc2c(c1)Oc1ccccc1S2)c1cc2cnccc2[nH]1 [Compound 174, (2S,4R)-N-((R)-1-(1H-pyrrolo[3,2-c]pyridin-2-yl)ethyl)-4-(cyclopropylsulfonyl)-1-((phenoxathiine-3-carbonyl)glycyl)pyrrolidine-2-carboxamide]"
3,< 100,"COC[C@@]1(F)C[C@@H](C(=O)N[C@H](C)c2cc3cnccc3[nH]2)N(C(=O)CNC(=O)c2ccc(Oc3ccc(F)cc3)cc2)C1 [Compound 175, (2S,4R)-N-((R)-1-(1H-pyrrolo[3,2-c]pyridin-2-yl)ethyl)-4-fluoro-1-((4-(4-fluorophenoxy)benzoyl)glycyl)-4-(methoxymethyl)pyrrolidine-2-carboxamide]"
4,< 100,"C[C@@H](NC(=O)[C@@H]1C[C@@H](C(F)(F)F)CN1C(=O)CNC(=O)c1ccc2c(c1)Oc1ccccc1S2)c1cc2cnccc2[nH]1 [Compound 176, (2S,4R)-N-((R)-1-(1H-pyrrolo[3,2-c]pyridin-2-yl)ethyl)-1-((phenoxathiine-3-carbonyl)glycyl)-4-(trifluoromethyl)pyrrolidine-2-carboxamide]"
5,< 100,"C[C@@H](NC(=O)[C@@H]1C[C@@H](c2ncco2)CN1C(=O)CNC(=O)c1ccc2c(c1)Oc1ccccc1S2)c1cc2cnccc2[nH]1 [Compound 177, (2S,4R)-N-((R)-1-(1H-pyrrolo[3,2-c]pyridin-2-yl)ethyl)-4-(oxazol-2-yl)-1-((phenoxathiine-3-carbonyl)glycyl)pyrrolidine-2-carboxamide]"
6,< 100,"C[C@@H](NC(=O)[C@@H]1C[C@H](c2ncco2)CN1C(=O)CNC(=O)c1ccc2c(c1)Oc1ccccc1S2)c1cc2cnccc2[nH]1 [Compound 178, (2S,4S)-N-((R)-1-(1H-pyrrolo[3,2-c]pyridin-2-yl)ethyl)-4-(oxazol-2-yl)-1-((phenoxathiine-3-carbonyl)glycyl)pyrrolidine-2-carboxamide]"
7,< 100,"O=C(NCC(=O)N1CC2(C[C@H]1C(=O)NCc1cc3cnccc3[nH]1)OCCO2)c1ccc2c(c1)sc1ccccc12 [Compound 179, (S)-N-((1H-pyrrolo[3,2-c]pyridin-2-yl)methyl)-7-((dibenzo[b,d]thiophene-3-carbonyl)glycyl)-1,4-dioxa-7-azaspiro[4.4]nonane-8-carboxamide]"
8,< 100,"C[C@@]12C[C@@H]1N(C(=O)CNC(=O)c1ccc3c(c1)Oc1ccccc1S3)[C@H](C(=O)NCc1ccc3nc(N)[nH]c3c1)C2 [Compound 181, (1S,3S,5S)-N-((2-amino-1H-benzo[d]imidazol-6-yl)methyl)-5-methyl-2-((phenoxathiine-3-carbonyl)glycyl)-2-azabicyclo[3.1.0]hexane-3-carboxamide]"
9,< 100,"C[C@@H](NC(=O)[C@@H]1CC(Cn2ccnc2)CN1C(=O)CNC(=O)c1ccc2c(c1)Oc1ccccc1S2)c1cc2cnccc2[nH]1 (stereo partly drawn) [Compound 184, (2S)-4-((1H-imidazol-1-yl)methyl)-N-((R)-1-(1H-pyrrolo[3,2-c]pyridin-2-yl)ethyl)-1-((phenoxathiine-3-carbonyl)glycyl)pyrrolidine-2-carboxamide]"
10,< 100,"C[C@@H](NC(=O)[C@@H]1C[C@]2(Cc3nccs3)C[C@@H]2N1C(=O)CNC(=O)c1ccc2c(c1)Oc1ccccc1S2)c1cc2cnccc2[nH]1 [Compound 186, (1S,3S,5S)-N-((R)-1-(1H-pyrrolo[3,2-c]pyridin-2-yl)ethyl)-2-((phenoxathiine-3-carbonyl)glycyl)-5-(thiazol-2-ylmethyl)-2-azabicyclo[3.1.0]hexane-3-carboxamide]"
11,< 100,"O=C(NCC(=O)N1C[C@@](F)(CF)C[C@H]1C(=O)NCc1cc2cnccc2[nH]1)c1ccc2oc3ccccc3c2c1 [Compound 187, (2S,4R)-N-((1H-pyrrolo[3,2-c]pyridin-2-yl)methyl)-1-((dibenzo[b,d]furan-2-carbonyl)glycyl)-4-fluoro-4-(fluoromethyl)pyrrolidine-2-carboxamide]"
12,< 100,"O=C(NCC(=O)N1CCC[C@H]1C(=O)NCc1cc2cnccc2[nH]1)c1ccc2c(c1)Oc1ccccc1S2 [Compound 188, (S)-N-((1H-pyrrolo[3,2-c]pyridin-2-yl)methyl)-1-((phenoxathiine-3-carbonyl)glycyl)pyrrolidine-2-carboxamide]"
13,> 1000,"C[C@@H](NC(=O)[C@@H]1C[C@@H](OC(F)F)CN1C(=O)CNC(=O)c1ccc(Oc2ccccc2)cc1)c1cc(B(O)O)cs1 [Compound 189, (5-((R)-1-((2S,4R)-4-(difluoromethoxy)-1-((4-phenoxybenzoyl)glycyl)pyrrolidine-2-carboxamido)ethyl)thiophen-3-yl)boronic acid]"
14,< 100,"C[C@@H](NC(=O)[C@@H]1CC2(CC2)CN1C(=O)CNC(=O)c1ccc2c(c1)Oc1ccccc1S2)c1cc2cnccc2[nH]1 [Compound 190, (S)-N-((R)-1-(1H-pyrrolo[3,2-c]pyridin-2-yl)ethyl)-5-((phenoxathiine-3-carbonyl)glycyl)-5-azaspiro[2.4]heptane-6-carboxamide]"
15,< 100,"COC[C@@]12C[C@@H]1N(C(=O)CNC(=O)c1ccc3c(c1)Oc1ccccc1S3)[C@H](C(=O)N[C@H](C)c1cc3cnccc3[nH]1)C2 [Compound 191, (1S,3S,5R)-N-((R)-1-(1H-pyrrolo[3,2-c]pyridin-2-yl)ethyl)-5-(methoxymethyl)-2-((phenoxathiine-3-carbonyl)glycyl)-2-azabicyclo[3.1.0]hexane-3-carboxamide]"
16,> 1000,"O=C(NCC(=O)N1C[C@H](OC(F)F)C[C@H]1C(=O)NCc1ccc2[nH]ncc2c1)c1ccc2c(c1)Oc1ccccc1S2 [Compound 192, (2S,4R)-N-((1H-indazol-5-yl)methyl)-4-(difluoromethoxy)-1-((phenoxathiine-3-carbonyl)glycyl)pyrrolidine-2-carboxamide]"
17,> 1000,"O=C(NCC(=O)N1C[C@H](OC(F)F)C[C@H]1C(=O)NCc1ccc2nc[nH]c2c1)c1ccc2c(c1)Oc1ccccc1S2 [Compound 193, (2S,4R)-N-((1H-benzo[d]imidazol-6-yl)methyl)-4-(difluoromethoxy)-1-((phenoxathiine-3-carbonyl)glycyl)pyrrolidine-2-carboxamide]"
18,> 1000,"O=C(NCC(=O)N1C[C@H](OC(F)F)C[C@H]1C(=O)NCc1ccc2[nH]ccc2c1)c1ccc2c(c1)Oc1ccccc1S2 [Compound 195, (2S,4R)-N-((1H-indol-5-yl)methyl)-4-(difluoromethoxy)-1-((phenoxathiine-3-carbonyl)glycyl)pyrrolidine-2-carboxamide]"
19,> 1000,"O=C(NCC(=O)N1C[C@H](OC(F)F)C[C@H]1C(=O)NCc1ccc2cc[nH]c2c1)c1ccc2c(c1)Oc1ccccc1S2 [Compound 196, (2S,4R)-N-((1H-indol-6-yl)methyl)-4-(difluoromethoxy)-1-((phenoxathiine-3-carbonyl)glycyl)pyrrolidine-2-carboxamide]"

# From patent publication US20260062443A1 (ALEXION PHARMACEUTICALS, INC., priority 2022, published 2026)
